Where a chain is given by its changes, count along the chain named.
Key:
Assay type in all cases: cell-based
[1] = biological target: T1, human PKD2-L1 (Wt), homomeric channel (Homo sapiens, UniProt Q9P0L9); experiment: whole-cell patch clamp, current potentiation, voltage ramps
T1 construct: gene PKD2L1; full-length isoform 1 in pTracer CMV2, transiently transfected HEK 293T cells; homotetramer; whole-cell patch clamp
T1 sequence (Q9P0L9 1-805): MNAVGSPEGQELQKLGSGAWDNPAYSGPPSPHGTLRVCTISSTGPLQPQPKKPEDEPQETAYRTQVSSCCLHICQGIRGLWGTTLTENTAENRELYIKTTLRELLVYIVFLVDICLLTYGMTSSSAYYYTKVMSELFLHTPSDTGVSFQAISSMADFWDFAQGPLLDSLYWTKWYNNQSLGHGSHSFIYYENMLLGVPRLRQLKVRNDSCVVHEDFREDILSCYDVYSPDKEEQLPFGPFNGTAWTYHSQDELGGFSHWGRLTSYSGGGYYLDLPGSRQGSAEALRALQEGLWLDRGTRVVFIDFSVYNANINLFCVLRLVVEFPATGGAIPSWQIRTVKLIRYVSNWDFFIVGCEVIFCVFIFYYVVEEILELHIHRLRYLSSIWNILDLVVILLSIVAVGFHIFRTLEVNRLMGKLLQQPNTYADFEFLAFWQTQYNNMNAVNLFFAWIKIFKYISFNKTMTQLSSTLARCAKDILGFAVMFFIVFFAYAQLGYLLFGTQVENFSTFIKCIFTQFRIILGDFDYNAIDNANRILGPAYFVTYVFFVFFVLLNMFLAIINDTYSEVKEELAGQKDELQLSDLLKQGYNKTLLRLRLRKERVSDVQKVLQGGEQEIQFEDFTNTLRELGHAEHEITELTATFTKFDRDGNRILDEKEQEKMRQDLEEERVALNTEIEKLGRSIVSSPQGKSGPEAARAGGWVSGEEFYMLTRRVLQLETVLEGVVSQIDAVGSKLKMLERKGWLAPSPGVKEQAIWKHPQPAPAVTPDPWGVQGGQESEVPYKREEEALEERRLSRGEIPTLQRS

[2] = biological target: T2, human PKD2-L1, homomeric channel (Homo sapiens, UniProt Q9P0L9, D523N); experiment: as above
T2 construct: gene PKD2L1; full-length isoform 1 in pTracer CMV2, transiently transfected HEK 293T cells; homotetramer; whole-cell patch clamp
T2 sequence (Q9P0L9 1-805 D523N): T1 sequence (Q9P0L9 1-805) with D523N

[3] = biological target: T1, human PKD2-L1 (Wt), homomeric channel; experiment: whole-cell patch clamp, current block, voltage ramps, Hill fit
[4] = biological target: T2, human PKD2-L1, homomeric channel; experiment: as above

Clc1ccc(C(c2ccc(Cl)cc2)n2cc[n+](CC(OCc3ccc(Cl)cc3Cl)c3ccc(Cl)cc3Cl)c2)cc1 (stereo not shown) [calmidazolium]
EC50 [1]: 2.6 ± 6 µM
EC50 [2]: 9 ± 7 µM

CCCCOc1cc(C(=O)NCCN(CC)CC)c2ccccc2n1 [dibucaine]
IC50 [3]: 31 ± 5 µM
IC50 [4]: 23 ± 3 µM

— paper PMC4922860, “Atypical calcium regulation of the PKD2-L1 polycystin ion channel” (eLife, 2016)
